≈ marks a conversion by molar mass, not a printed value. Where two headings read alike, the source gives them in different places.
Assays:
B. subtilis 168 = experiment: Determination of MIC against B. subtilis; type: cell-based; details: read-out: MIC against B. subtilis
Description: Determination of MIC against B. subtilis
Overnight cultures of B. subtilis 168 were grown in 50 mL flasks in 5 mL BMM media. The bacteria in the mid-log phase were then incubated with compounds for 18 h at 37 ̊C in BMM media. The MIC was determined as the lowest concentration at which no visible bacterial OD […]
Overnight bacterial cultures were inoculated in BMM and allowed to grow to an OD 500 of 0.35. 200 µL of the bacterial culture were incubated with compounds at 37 ̊C for 15 minutes. […]
BAC Light assay or pore formation assay
0.35. 500 µL of the bacteria was then incubated with the compounds at their respective PECSs for 10 mins in the same media at 37 ̊C. The compound was then centrifuged at 13200 rpm and […]

MRSA = experiment: Cytoplasmic membrane depolarization assay, DiSC3(5); type: cell-based, S. aureus; details: for time to membrane depolarisation post-treatment: exponentially growing MRSA, 10 μM; for time to dissipation of membrane potential post-treatment: stationary phase cells of MRSA, 20 μM
Source text: The membrane disruption properties of both VanQbiph (4) and VanQAmC10 (8) were studied to correlate the extent of membrane perturbation and bactericidal activity against both exponentially growing and non-growing bacterial cells. Their ability to depolarize the membrane was monitored using the fluorescent probe DiSC3(5) (3,3′-dipropylthiadicarbocyanine iodide). DiSC3(5) is sensitive to the membrane potential and as it accumulates in the membrane, the fluorescence intensity decreases due to self-quenching. Upon dissipation of membrane potential, an increase in fluorescence is observed due to DiSC3(5) being dispersed in the solution. Against B. subtilis and MRSA, both the compounds VanQbiph (4) and VanQAmC10 (8) depolarised the membrane within 2 minutes post-treatment at 10 μM (Fig. 2A and B). The depolarization occurred in a concentration-dependent manner (Fig. S2A ^†). […] Against stationary phase cells of MRSA also, rapid dissipation of membrane potential was observed within 2 minutes post-treatment with both VanQbiph (4) and VanQAmC10 (8) (Fig. 2C). […]
For assessing depolarisation against stationary phase cells of MRSA ATCC 33591, cells were grown to the stationary phase for 16 h. The culture was then diluted to an OD600 of 0.2 and the depolarisation assays was performed as described. The experiments were performed three times independently in duplicates and the graph is representative of the results from all experiments.
Cytoplasmic membrane depolarization assay5
Mid log phase MRSA were harvested (3500 rpm, 5 min), washed in 5 mM glucose and 5 mM HEPES buffer (pH 7.2) in 1:1 ratio and resuspended in 5 mM HEPES buffer, 5 mM glucose and 100 mM KCl solution in 1:1:1 ratio. Then 2 μM of 3, 3′-Dipropylthiadicarbocyanine iodide (DiSC3(5)) was added to bacterial suspension and pre-incubated for 45 min. The fluorescence was monitored at excitation wavelength of 622 nm and emission wavelength of 670 nm. Then 20 μL of test compound and vancomycin were added to black well plates containing bacterial suspension and DiSC3(5) after 2-4 min of fluorescence measurement. As a measure of membrane depolarization fluorescence was monitor for another 35 min. For assessing membrane […] against stationary phase cells of MRSA ATCC 33591, cells were grown to the stationary phase for 16 h. The culture was then diluted to an OD600 of 0.2 and the depolarisation assays was performed as described. The images are representative of results from three independent experiments done in triplicates […]
Glass cover slips 24 h post -treatment with the test compounds at the mentioned con centrations, […]

[1] = system: B. subtilis 1981 GFP-MinD; experiment: GFP-MinD localization; type: cell-based; details: treatment at the PEC, 15 min
Source text: MinD is a peripheral membrane protein that localizes at the cell poles and is part of the cell division regulation machinery. It has been reported that treatment with membrane-depolarizing agents like valinomycin results in the delocalization of the protein which appears in irregularly distributed spots throughout the cell. Since the compounds depolarise the bacterial membrane, their effect on the localization of the GFP-tagged MinD protein of B. subtilis was investigated. […]
resuspended in prewarmed BMM media. 1:1 BAC light dye was then added to the bacterial suspension and incubated for 5 minutes. The fluorescence in the GFP and Texas red channels was then observed under the microscope. The experiments were performed three times independently and the images are representative of results from three independent experiments.
B. subtilis 1981 GFP-MinD was cultured overnight in BMM.8 Cells were then inoculated in xylose containing BMM instead of glucose to an OD500 of 0.1 to induce expression of the GFP-MinD fusion protein. […]
About 6 μl of sample was immobilized on 1% agarose pad . DIC and fluorescence images were obtained at different time intervals using Nikon Eclipse Ti Microscope equipped with Nikon DS-U3 camera through Plan Apo 100×/1.40 oil objective. […]

VRSA = experiment: Time-kill kinetics against VRSA; type: cell-based, S. aureus

CNC(CC(C)C)C(=O)NC1C(=O)NC(CC(N)=O)C(=O)NC2C(=O)NC3C(=O)NC(C(=O)NC(C(=O)NCCC[N+](C)(C)Cc4ccc(-c5ccccc5)cc4)c4cc(O)cc(O)c4-c4cc3ccc4O)C(O)c3ccc(c(Cl)c3)Oc3cc2cc(c3OC2OC(CO)C(O)C(O)C2OC2CC(C)(N)C(O)C(C)O2)Oc2ccc(cc2Cl)C1O (centres unmarked) [VanQbiph (4)]
MIC (B. subtilis 168; Bacillus subtilis, 168, BMM media, 18 h): 0.15 µM
time to membrane depolarisation post-treatment (MRSA): ≤ 2 min
time to dissipation of membrane potential post-treatment (MRSA): ≤ 2 min
localization of GFP-MinD [1]: irregular distribution of GFP-labelled MinD across the cells

CCCCCCCCCCNC(=O)C[N+](C)(C)CCCNC(=O)C1NC(=O)C2NC(=O)C(NC(=O)C3NC(=O)C(CC(N)=O)NC(=O)C(NC(=O)C(CC(C)C)NC)C(O)c4ccc(c(Cl)c4)Oc4cc3cc(c4OC3OC(CO)C(O)C(O)C3OC3CC(C)(N)C(O)C(C)O3)Oc3ccc(cc3Cl)C2O)c2ccc(O)c(c2)-c2c(O)cc(O)cc21 (centres unmarked) [VanQAmC10 (8)]
increase in bacterial titer between 6 h and 24 h (VRSA; VRSA, 2×MIC, after initial reduction): 1 log CFU mL^−1
time to complete eradication (VRSA; VRSA, 6×MIC): 24 h
reduction of bacterial titer (VRSA; VRSA, at MIC, 24 h): 1.9 log CFU mL^−1
MIC (B. subtilis 168; Bacillus subtilis, 168, 18 h): 0.25 µM
time to membrane depolarisation post-treatment (MRSA): ≤ 2 min
time to dissipation of membrane potential post-treatment (MRSA): ≤ 2 min
localization of GFP-MinD [1]: irregular distribution of GFP-labelled MinD across the cells

CN[C@H](CC(C)C)C(=O)N[C@H]1C(=O)N[C@@H](CC(N)=O)C(=O)N[C@H]2C(=O)N[C@H]3C(=O)N[C@H](C(=O)N[C@H](C(=O)O)c4cc(O)cc(O)c4-c4cc3ccc4O)[C@H](O)c3ccc(c(Cl)c3)Oc3cc2cc(c3O[C@@H]2O[C@H](CO)[C@@H](O)[C@H](O)[C@H]2O[C@H]2C[C@](C)(N)[C@H](O)[C@H](C)O2)Oc2ccc(cc2Cl)[C@H]1O [Vancomycin, reference compound]
effect on growth of VRSA (VRSA; 20 μM (sub-MIC)): initial growth inhibitory effect, followed by resumption of bacterial growth
MIC (B. subtilis 168; Bacillus subtilis, 168, 18 h): 0.2 µM (≈ 0.29 µg/mL)
effect on membrane potential (MRSA): did not affect the membrane potential
